Holding throughout (assay): DTP human tumour cell line panel, 48 h
The subject of experiment [1] is KM12 colon.
Experiment [2] relates to A549 NSCLC.
Experiment [3] deals with NCI/ADR-RES ovarian.
The test system of experiment [4] is SK-MEL-2 melanoma.
Experiment [5] relates to EKVX NSCLC.
Experiment [6] concerns MCF7 breast.
Experiment [7] relates to SK-MEL-5 melanoma.
Experiment [8] concerns TK-10 renal.
The subject of experiment [9] is M14 melanoma.
For experiment [10], the system named is HOP-92 NSCLC.
The subject of experiment [11] is DU-145 prostate.
Experiment [12] deals with LOX IMVI melanoma.
The subject of experiment [13] is UACC-62 melanoma.
Experiment [14] deals with NCI-H23 lung.
Experiment [15] deals with BT-549 breast.
Experiment [16] has as its system UO-31 renal.
The subject of experiment [17] is T-47D breast.

We go through eight molecules from PubChem BioAssay (NCI).

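Five compound concentrations were applied to cells in 96-well plates for 48 hours; endpoints were derived by simple linear interpolation of the resulting dose-response curve. Definition used: TGI = concentration required for complete inhibition of growth.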 Where a SMILES comes first, the peptide text is derived from it. [ ]: non-standard residue; d: D form. The star is where a group is joined. ξ: configuration not given here. ξF = NC(Cc1ccccc1)C(=O)O; Cbz = O=C(OCc1ccccc1)*; Aib = CC(C)(N)C(=O)O; NHNH2 = NN*

For orientation: TGI means the concentration at which net growth stops. Low readings indicate more potent growth arrest, high ones less potent growth arrest. Regarding `COc1ccc(N=N/C(=N/NC(=O)c2ccc(C)cc2)c2ccc(N(CCC#N)CCC#N)cc2OC)cc1`, the TGI in [1], in [2], in [3], in [4], in experiment [5] and in experiment [6] was above 100 µM each time. Further, the TGI in experiment [7], in [8], in experiment [9], in [10], in experiment [11] and in experiment [12] was above 100 µM each time. For the same molecule, the TGI in experiment [13], in experiment [14], in [15], in experiment [16] and in experiment [17] was above 100 µM each time.

Turning to `O=C(NC1(c2cc3ccccc3s2)CCCCC1)C1CCC1`, the TGI in [1], in experiment [2], in experiment [3], in experiment [4], in experiment [5] and in experiment [6] was above 100 µM in each case. Moreover, the TGI in experiment [7], in [8], in [9], in experiment [10], in experiment [11] and in [12] was above 100 µM in each case. Besides, the concentration for total growth inhibition (TGI) in [13], in experiment [14], in [15], in experiment [16] and in [17] was above 100 µM throughout.

As to `CCOc1cc(C2SCC(=O)N2c2ccc(Oc3ccc(Cl)cc3)c(Cl)c2)ccc1O` (stereo unspecified), the TGI in [1] was determined as 31.8 µM; in experiment [2] it was 39.7 µM; in [3], 36.9 µM; in experiment [4] it was 32.7 µM; in experiment [5] it was 33.4 µM; in experiment [6], 56.4 µM. Further, the TGI in experiment [7] was 31.5 µM; in experiment [8], 34.2 µM; in [9] it was 56.1 µM; in experiment [10] it was 33.7 µM; in experiment [11], 31.3 µM; in experiment [12], 38.7 µM. The TGI in [13] stood at 30.3 µM; in [14] it was 32.3 µM; in [15], 31.5 µM; in [16] it was 21.7 µM; in experiment [17], 40.4 µM.

For `C#C[C@]1(O)CC[C@H]2[C@@H]3CCC4=C/C(=N/OCCN(C)C)CC[C@]4(C)[C@H]3CC[C@@]21C`, the TGI in experiment [1], in experiment [2], in [3], in experiment [4], in [5] and in [6] was above 100 µM throughout. For the same molecule, the TGI in experiment [7] is 78.3 µM; in experiment [8] it was above 100 µM; in [9], 35.2 µM; in experiment [10], above 100 µM; in [11] it was above 100 µM; in experiment [12], above 100 µM. In addition, the TGI in experiment [13], in experiment [14], in experiment [15], in experiment [16] and in experiment [17] was above 100 µM throughout.

On to `COc1cc(NS(C)(=O)=O)ccc1Nc1cc[nH]c2ccc3nccc3c12`, for which the TGI in experiment [1] was 28.2 µM; in experiment [2] it was 34.9 µM; in experiment [3], above 100 µM; in [4], 30.9 µM; in experiment [5], 51.3 µM; in experiment [6] it was 35.9 µM. Moreover, the TGI in [7] was found to be 29.8 µM; in experiment [8] it was 30.3 µM; in experiment [9] it was 32.2 µM; in experiment [10], 24.8 µM; in experiment [11], 27.7 µM; in experiment [12], 36 µM. In addition, the TGI is 32.5 µM in [13]; 29.8 µM in experiment [14]; 28.7 µM in experiment [15]; above 100 µM in experiment [16]; 33.2 µM in experiment [17].

For `CC(C)(NC(=O)OCc1ccccc1)C(=O)NC(Cc1ccccc1)C(=O)NN` (stereo unspecified) (Cbz-[Aib]-[ξF]-NHNH2), the TGI in [1], in experiment [2], in experiment [3], in [4], in [5] and in experiment [6] was above 100 µM each time. Further, the total growth inhibition concentration (TGI) in [7], in [8], in [9], in experiment [10], in [11] and in experiment [12] was above 100 µM in each case. In addition, the TGI in experiment [13], in [14], in experiment [15], in experiment [16] and in [17] was above 100 µM each time.

As for `C=C1C(=O)O[C@H]2C/C(C)=C/CC[C@@]3(C)O[C@](C)(CC[C@@H]3I)[C@@H](I)C[C@@H]12`, the TGI in [1] came out at 18.5 µM; in experiment [2], 18.2 µM; in experiment [3] it was 5.65 µM; in experiment [4], 25.8 µM; in experiment [5], 14.3 µM; in [6] it was 9.61 µM. For the same molecule, the TGI in [7] is 9.92 µM; in [8], 12.4 µM; in experiment [9] it was 27.1 µM; in experiment [10], 13 µM; in experiment [11], 11.8 µM; in experiment [12], 6.34 µM. The TGI in experiment [13] is 12 µM; in [14], 18.5 µM; in experiment [15], 12.4 µM; in experiment [16] it was 11.8 µM; in experiment [17], 15 µM.

For the molecule `C=CCN(c1cc(OCc2ccccc2)c2[nH]cc(C)c2c1)S(C)(=O)=O`, the TGI is above 100 µM in [1]; above 100 µM in [2]; above 100 µM in experiment [3]; above 100 µM in experiment [4]; 67.9 µM in [5]; above 100 µM in [6]. Also, the TGI in experiment [7], in experiment [8], in [9], in experiment [10], in [11] and in [12] was above 100 µM throughout. Further, the TGI in experiment [13] was above 100 µM; in experiment [14] it was above 100 µM; in experiment [15], above 100 µM; in [16], above 100 µM; in experiment [17], 60.6 µM.
